According to US20240391862A1, “(1,4,5-TRISUBSTITUTED-1H-PYRAZOL-3-YL)OXY-2-ALKOXY ALKYL ACIDS AND THEIR DERIVATIVES, THEIR SALTS AND THEIR USE AS HERBICIDAL AGENTS” (Bayer AKtiengesellschaft, priority 2021, published 2024):

Experiments:
[1] = system: ECHCG; experiment: Pre-emergence herbicidal effect, greenhouse pot test; assay type: in vivo, Echinochloa crus-galli; conditions: Echinochloa crus-galli, 504 h, 320 g/ha, scored visually after about 3 weeks vs untreated controls, read-out: Pre-emergence effect at 320 g/ha against ECHCG in %
Description: (§1) Seeds of monocotyledonous and dicotyledonous weed plants and crop plants are placed in plastic or organic planting pots and covered with soil. The compounds of the invention, formulated in the form of wettable powders (WP) or as emulsion concentrates (EC), are then applied to the surface of the covering soil as aqueous suspension or emulsion with addition of 0.5% additive at a water application rate equivalent to 600 l/ha. After the treatment, the pots are placed in a greenhouse and kept under good growth conditions for the trial plants. After about 3 weeks, the effect of the preparations is scored visually in comparison with untreated controls as percentages. For example, 100% activity=the plants have died, 0% activity=like control plants.
(§2) Tables 1a to 19c below show the effects/crop compatibilities of selected compounds of the general formula (I) on various harmful plants at an application rate corresponding to 20 to 320 g/ha, which were obtained by the trial procedure specified above.
(§3) • ALOMY: Alopecurus myosuroides SETVI: Setaria viridis • AVEFA: Avena fatua POLCO: Fallopia convolvulus • AMARE: Amaranthus retroflexus ECHCG: Echinochloa crus-galli • LOLRJ: Lolium rigidum STEME: Stellaria media • VERPE: Veronica persica MATIN: Tripleurospermum inodorum • DIGSA: Digitaria sanguinalis ABUTH: Abutylon threophrasti • TRZAS: Triticum aestivum VIOTR: Viola tricolor • BRSNW: Brassica napus ZEAMX: Zea mays • PHBPU: Ipomoea purpurea GLXMA: Glycine max • ORYSA: Oryza sativa HORMU: Hordeum murinum

[2] = system: VIOTR; experiment: Post-emergence herbicidal effect, greenhouse pot test; assay type: in vivo, Viola tricolor; conditions: Viola tricolor, 504 h, read-out: Post-emergence effect against VIOTR in %
In short: (§4)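 Greenhouse pot plants in sandy loam receive a one-leaf-stage spray at 20 to 320 g/ha. Activity is assessed visually around 3 weeks afterwards on a 0–100% scale, where 100% means the plants have died.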

[3] = system: MATIN; experiment: as above; assay type: in vivo, Tripleurospermum inodorum; conditions: Tripleurospermum inodorum, 504 h, read-out: Post-emergence effect against MATIN in %
In short: as §4

[4] = system: SETVI; experiment: as above; assay type: in vivo, Setaria viridis; conditions: Setaria viridis, 504 h, read-out: Post-emergence effect against SETVI in %
In short: as §4

[5] = system: MATIN; experiment: Pre-emergence herbicidal effect, greenhouse pot test; assay type: in vivo, Tripleurospermum inodorum; conditions: scored visually after about 3 weeks vs untreated controls
Description: as §1, §2, §3

[6] = system: ALOMY; experiment: Post-emergence herbicidal effect, greenhouse pot test; assay type: in vivo, Alopecurus myosuroides; conditions: Alopecurus myosuroides, 504 h, visual rating about 3 weeks after treatment, read-out: Post-emergence effect against ALOMY
In short: as §4

[7] = system: AMARE; experiment: Pre-emergence herbicidal effect, greenhouse pot test; assay type: in vivo, Amaranthus retroflexus; conditions: scored visually after about 3 weeks vs untreated controls
Description: as §1, §2, §3

[8] = system: ECHCG; experiment: Post-emergence herbicidal effect, greenhouse pot test; assay type: in vivo, Echinochloa crus-galli; conditions: Echinochloa crus-galli, 504 h, read-out: Post-emergence effect against ECHCG in %
In short: as §4

[9] = system: GLXMA; experiment: Pre-emergence herbicidal effect and crop plant compatibility, greenhouse pot test; assay type: in vivo, Glycine max; conditions: 80 g/ha, scored visually after about 3 weeks vs untreated controls
Description: as §1, §2, §3

[10] = system: TRZAS; experiment: as above; assay type: in vivo, Triticum aestivum; conditions: 80 g/ha, scored visually after about 3 weeks vs untreated controls
Description: as §1, §2, §3

[11] = system: POLCO; experiment: Pre-emergence herbicidal effect, greenhouse pot test; assay type: in vivo, Fallopia convolvulus; conditions: Fallopia convolvulus, 504 h, 320 g/ha, scored visually after about 3 weeks vs untreated controls, read-out: Pre-emergence effect at 320 g/ha against POLCO in %
Description: as §1, §2, §3

[12] = system: PHBPU; experiment: as above; assay type: in vivo, Ipomoea purpurea; conditions: 320 g/ha, scored visually after about 3 weeks vs untreated controls
Description: as §1, §2, §3

[13] = system: PHBPU; experiment: Post-emergence herbicidal effect, greenhouse pot test; assay type: in vivo, Ipomoea purpurea; conditions: Ipomoea purpurea, 504 h, read-out: Post-emergence effect against PHBPU in %
In short: as §4

[14] = system: AVEFA; experiment: as above; assay type: in vivo, Avena fatua; conditions: Avena fatua, 504 h, visual rating about 3 weeks after treatment, read-out: Post-emergence effect against AVEFA
In short: as §4

[15] = system: ALOMY; experiment: Pre-emergence herbicidal effect, greenhouse pot test; assay type: in vivo, Alopecurus myosuroides; conditions: 320 g/ha, scored visually after about 3 weeks vs untreated controls
Description: as §1, §2, §3

[16] = system: ORYSA; experiment: Post-emergence herbicidal effect and crop plant compatibility, greenhouse pot test; assay type: in vivo, Oryza sativa; conditions: 320 g/ha, one-leaf stage, rated visually after about 3 weeks vs untreated controls
Description: as §3
Seeds of monocotyledonous and dicotyledonous weeds and crop plants are placed in sandy loam in plastic or organic planting pots, covered with soil and cultivated in a greenhouse under controlled growth conditions. 2 to 3 weeks after sowing, the trial plants are treated at the one-leaf stage. The compounds of the invention, formulated in the form of wettable powders (WP) or as emulsion concentrates (EC), are then sprayed onto the green parts of the plants as aqueous suspension or emulsion with addition of 0.5% additive at a water application rate of 600 l/ha (converted). After the test plants have been kept in the greenhouse under optimum growth conditions for about 3 weeks, the activity of the preparations is rated visually in comparison to untreated controls. For example, 100% activity=the plants have died, 0% activity=like control plants.
Tables 20a to 38c below show the effects/crop compatibilities of selected compounds of the general formula (I) on various harmful plants at an application rate corresponding to 20 to 320 g/ha, which were obtained by the trial procedure specified above.

[17] = system: DIGSA; experiment: Post-emergence herbicidal effect, greenhouse pot test; assay type: in vivo, Digitaria sanguinalis; conditions: Digitaria sanguinalis, 504 h, 320 g/ha, visual rating about 3 weeks after treatment, read-out: Post-emergence effect against DIGSA
In short: as §4

[18] = system: ABUTH; experiment: as above; assay type: in vivo, Abutilon theophrasti; conditions: Abutilon theophrasti, 504 h, visual rating about 3 weeks after treatment, read-out: Post-emergence effect against ABUTH
In short: as §4

[19] = system: LOLRI; experiment: as above; assay type: in vivo, Lolium rigidum; conditions: Lolium rigidum, 504 h, 320 g/ha, read-out: Post-emergence effect against LOLRI in %
In short: as §4

[20] = system: AMARE; experiment: as above; assay type: in vivo, Amaranthus retroflexus; conditions: Amaranthus retroflexus, 504 h, 320 g/ha, visual rating about 3 weeks after treatment, read-out: Post-emergence effect against AMARE
In short: as §4

[21] = system: VERPE; experiment: as above; assay type: in vivo, Veronica persica; conditions: Veronica persica, 504 h, 320 g/ha, read-out: Post-emergence effect against VERPE in %
In short: as §4

[22] = system: TRZAS; experiment: Post-emergence herbicidal effect and crop plant compatibility, greenhouse pot test; assay type: in vivo, Triticum aestivum; conditions: Triticum aestivum, 504 h, 20 g/ha, one-leaf stage, rated visually after about 3 weeks vs untreated controls, read-out: Post-emergence effect at 20 g/ha against TRZAS in %
In short: as §4

[23] = system: POLCO; experiment: Post-emergence herbicidal effect, greenhouse pot test; assay type: in vivo, Fallopia convolvulus; conditions: Fallopia convolvulus, 504 h, 320 g/ha, read-out: Post-emergence effect against POLCO in %
In short: as §4

[24] = system: ZEAMX; experiment: Post-emergence herbicidal effect and crop plant compatibility, greenhouse pot test; assay type: in vivo, Zea mays; conditions: Zea mays, 504 h, 20 g/ha, one-leaf stage, rated visually after about 3 weeks vs untreated controls, read-out: Post-emergence effect at 20 g/ha against ZEAMX in %
In short: as §4

Compound	pest or weed control at 320 g/ha [2] [%]	pest or weed control at 80 g/ha [3] [%]	pest or weed control at 320 g/ha [3] [%]	pest or weed control at 80 g/ha [4] [%]	pest or weed control at 320 g/ha [4] [%]	pest or weed control at 320 g/ha [6] [%]	pest or weed control at 80 g/ha [8] [%]	pest or weed control at 320 g/ha [8] [%]	pest or weed control at 80 g/ha [13] [%]	pest or weed control at 320 g/ha [13] [%]	pest or weed control at 320 g/ha [14] [%]	Post-emergence effect at 320 g/ha against ORYSA in % [16] [%]	pest or weed control at 320 g/ha [17] [%]	pest or weed control at 320 g/ha [18] [%]	pest or weed control at 320 g/ha [19] [%]	pest or weed control at 320 g/ha [20] [%]	percent crop injury (phytotoxicity) to wheat, post-emergence at 20 g/ha [22] [%]	further results
COC(=O)C(OC)Oc1nn(-c2ncccc2F)c(-c2ccccc2)c1Br (centres unmarked) [Example I-06]	80	80	80	80	80	90	80	80	80	80	80	–	–	–	–	–	–	pest or weed control at 320 g/ha [1]: 100%; Pre-emergence effect at 80 g/ha against MATIN in % ([5]; 80 g/ha): 80%; pest or weed control at 320 g/ha ([5]; Tripleurospermum inodorum, 504 h, 320 g/ha, read-out: Pre-emergence effect at 320 g/ha against MATIN in %): 90%; pest or weed control at 80 g/ha ([6]; 80 g/ha): 90%; Pre-emergence effect at 80 g/ha against AMARE in % ([7]; 80 g/ha): 90%; pest or weed control at 320 g/ha ([7]; Amaranthus retroflexus, 504 h, 320 g/ha, read-out: Pre-emergence effect at 320 g/ha against AMARE in %): 100%; Pre-emergence effect at 80 g/ha against GLXMA in % [9]: 10%; Pre-emergence effect at 80 g/ha against TRZAS in % [10]: 10%; pest or weed control at 320 g/ha [11]: 80%; Pre-emergence effect at 320 g/ha against PHBPU in % [12]: 90%; Pre-emergence effect at 320 g/ha against ALOMY in % [15]: 90%
COC(=O)C(OC)Oc1nn(-c2cc(F)ccc2F)c(-c2cncc(F)c2)c1I (centres unmarked) [Example I-28]	90	90	90	80	90	90	90	90	90	90	90	20	80	100	90	80	20	pest or weed control at 20 g/ha ([2]; 20 g/ha): 80%; pest or weed control at 80 g/ha ([2]; 80 g/ha): 90%; pest or weed control at 20 g/ha ([3]; 20 g/ha): 80%; pest or weed control at 80 g/ha ([18]; 80 g/ha): 90%; pest or weed control at 320 g/ha [21]: 80%; pest or weed control at 20 g/ha ([13]; 20 g/ha): 80%; pest or weed control at 80 g/ha ([14]; 80 g/ha): 80%; pest or weed control at 320 g/ha [23]: 80%
COC(=O)C(OC)Oc1nn(-c2cnccn2)c(-c2ccc(F)nc2)c1Cl (centres unmarked) [Example I-35]	–	–	–	–	80	90	80	90	–	–	80	10	80	80	80	80	20	plant injury at 20 g/ha [24]: 20%
